Numbers after ± are expanded uncertainties.

A short description of this data set: refractive index (Na D-line) (dimensionless). The following applies: 293.1 K; 101.33 kPa; Liquid; Standard Abbe refractometry.
A word on the refractive index: it is the speed of light in vacuum divided by its phase velocity in the sample. Regarding `O=CN1CCOCC1` [N-formylmorpholine], the refractive index was 1.484 ± 0.0007.
For the compound `Cc1ccccc1` [toluene], the refractive index is 1.4873 ± 0.0007.
Then `CC1CCCCC1` [methylcyclohexane], with 1.423 ± 0.0007.

For the origin of these results see the NIST ThermoML archive (doi:10.1021/je700036v).
